Experimental data from BindingDB's records for doi:10.7270/Q2028PXQ (The Scripps Research Institute Molecular Screening Center, 2007).

Biological target: Steroidogenic factor 1 (Homo sapiens, UniProt Q13285)
Experiment: SF-1 driven luciferase reporter response, dose response, counter-screen for RORA activator project, CHO-K1 cells (AID 695)
Settings: not given

Chain of Steroidogenic factor 1 (Q13285 whole entry): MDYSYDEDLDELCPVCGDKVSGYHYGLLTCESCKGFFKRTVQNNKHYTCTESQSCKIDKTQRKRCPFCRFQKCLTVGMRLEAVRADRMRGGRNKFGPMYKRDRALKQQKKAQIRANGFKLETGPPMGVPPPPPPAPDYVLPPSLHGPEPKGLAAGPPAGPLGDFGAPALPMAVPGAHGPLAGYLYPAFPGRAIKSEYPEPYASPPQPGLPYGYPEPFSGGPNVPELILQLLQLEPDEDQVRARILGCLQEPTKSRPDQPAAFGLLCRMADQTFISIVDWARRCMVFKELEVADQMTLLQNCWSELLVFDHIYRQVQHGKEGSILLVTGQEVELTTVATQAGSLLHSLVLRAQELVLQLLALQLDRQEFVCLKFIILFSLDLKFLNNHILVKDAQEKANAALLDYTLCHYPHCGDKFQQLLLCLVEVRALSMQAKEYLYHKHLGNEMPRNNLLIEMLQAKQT

Structure (SMILES)	EC50 [nM]
O=C1N(CCCN2C(=O)C3(OCCO3)c3ccccc32)c2ccccc2C12OCCO2 [1'-[3-(2'-ketospiro[1,3-dioxolane-2,3'-indoline]-1'-yl)propyl]spiro[1,3-dioxolane-2,3'-indoline]-2'-one]	> 99000
COc1cc(C)c(C(C)C)cc1S(=O)(=O)n1cnc(C)c1 [1-(2-methoxy-4-methyl-5-propan-2-yl-phenyl)sulfonyl-4-methyl-imidazole]	1320
CN1CCN(S(=O)(=O)c2ccc(Br)s2)CC1 [1-(5-bromanylthiophen-2-yl)sulfonyl-4-methyl-piperazine]	> 99000
Clc1ccccc1OCCn1cnc2ccccc21 [1-[2-(2-chloranylphenoxy)ethyl]benzimidazole]	3670
O=C(c1ccc(-c2nnc(-c3ccccc3)o2)cc1)N1CCCCCC1 [1-azepanyl-[4-(5-phenyl-1,3,4-oxadiazol-2-yl)phenyl]methanone]	252
Cn1c(SCc2ccccc2F)nc2cccnc21 [2-(2-Fluoro-benzylsulfanyl)-3-methyl-3H-imidazo[4,5-b]pyridine]	> 1220
Clc1ccc(-c2nnc(-c3ccccc3Cl)o2)cc1 [2-(2-chlorophenyl)-5-(4-chlorophenyl)-1,3,4-oxadiazole]	233
COc1ccc(Nc2oc(-c3ccccc3Cl)nc2C#N)cc1 [2-(2-chlorophenyl)-5-(4-methoxyanilino)-1,3-oxazole-4-carbonitrile]	2740
CCCCOC(=O)C(C)Oc1ccc(=O)n(-c2ccccc2)n1 (configuration not stated) [2-(6-keto-1-phenyl-pyridazin-3-yl)oxypropionic acid butyl ester]	> 99000
CCOC(=O)c1ccccc1NC(=O)CSc1nnnn1C1CCCCC1 [2-[2-(1-Cyclohexyl-1H-tetrazol-5-ylsulfanyl)-acetylamino]-benzoic acid ethyl ester]	> 99000
Cc1cc(NCCOCCO)n2ncc(-c3ccc(Cl)cc3)c2n1 [2-[2-[[3-(4-chlorophenyl)-5-methyl-7-pyrazolo[1,5-a]pyrimidinyl]amino]ethoxy]ethanol]	485
CCCCOc1ccc(-c2nnn(CC(=O)NCc3ccco3)n2)cc1 [2-[5-(4-Butoxy-phenyl)-tetrazol-2-yl]-N-furan-2-ylmethyl-acetamide]	1880
Nc1c(C(=O)NCCN2CCOCC2)c2nc3ccccc3nc2n1-c1ccc2c(c1)OCO2 [2-amino-1-(1,3-benzodioxol-5-yl)-N-(2-morpholin-4-ylethyl)pyrrolo[3,2-b]quinoxaline-3-carboxamide]	> 11000
COCCOC(=O)c1[nH]c2c(c1C)C(=O)CC(c1cc(OC)ccc1OC)C2 (configuration not stated) [2-methoxyethyl 6-(2,5-dimethoxyphenyl)-3-methyl-4-oxo-1,5,6,7-tetrahydroindole-2-carboxylate]	7670
Cc1cc(N)c(NC2=CC(=O)CC(C)(C)C2)cc1C [3-(2-amino-4,5-dimethyl-anilino)-5,5-dimethyl-cyclohex-2-en-1-one]	> 11000
CC(=O)C(C)Oc1ccc2c3c(c(=O)oc2c1C)CCCC3 (configuration not stated) [3-(2-keto-1-methyl-propoxy)-4-methyl-7,8,9,10-tetrahydrobenzo[c]chromen-6-one]	807
COc1cccc(-c2noc(-c3cccs3)n2)c1 [3-(3-methoxyphenyl)-5-(2-thienyl)-1,2,4-oxadiazole]	226
COc1cccc(-c2noc(-c3cccnc3)n2)c1 [3-(3-methoxyphenyl)-5-(3-pyridinyl)-1,2,4-oxadiazole]	1740
O=C1OC(N2CCN(Cc3ccccc3)CC2)c2ccccc21 (configuration not stated) [3-(4-benzylpiperazin-1-yl)-3H-2-benzofuran-1-one]	> 99000
Cc1cc(NC(=O)c2oc3ccccc3c2C)ccc1-n1cnnn1 [3-Methyl-benzofuran-2-carboxylic acid (3-methyl-4-tetrazol-1-yl-phenyl)-amide]	3240
CCn1c(-c2ccc(N(C)C)cc2)nc2ccccc21 [4-(1-ethyl-2-benzimidazolyl)-N,N-dimethylaniline]	540
COc1ccccc1-c1nc(-c2ccncc2)no1 [4-[5-(2-Methoxy-phenyl)-[1,2,4]oxadiazol-3-yl]-pyridine]	1240

Structure (SMILES)	EC50 [nM]
Cc1ccccc1Cn1ccc(NC(=O)c2onc(C)c2Cl)n1 [4-chloranyl-3-methyl-N-[1-[(2-methylphenyl)methyl]pyrazol-3-yl]-1,2-oxazole-5-carboxamide]	7180
COc1ccc(C(=O)Nc2cc(C)on2)cc1 [4-methoxy-N-(5-methyl-1,2-oxazol-3-yl)benzamide]	918
Cc1ccc(-c2nc(C#N)c(NCc3ccco3)o2)cc1 [5-(2-furanylmethylamino)-2-(4-methylphenyl)-4-oxazolecarbonitrile]	3420
Oc1coc2ccc(OCc3ccc(F)cc3)cc12 [5-(4-fluorobenzyl)oxycoumaran-3-one]	1710
CCOc1ccc(-c2nc(C#N)c(NC3CC3)o2)cc1 [5-(cyclopropylamino)-2-(4-ethoxyphenyl)-1,3-oxazole-4-carbonitrile]	4020
Cc1ccc2nc(Nc3ccc4[nH]c(O)nc4c3)c(-n3nc(C)cc3C)nc2c1 [5-[[3-(3,5-dimethyl-1-pyrazolyl)-6-methyl-2-quinoxalinyl]amino]-1,3-dihydrobenzimidazol-2-one]	> 1220
COc1cccc(NC(=O)c2nnn(Cc3ccc(Br)cc3F)c2N)c1 [5-amino-1-(4-bromo-2-fluoro-benzyl)-N-(3-methoxyphenyl)triazole-4-carboxamide]	4380
O=C(Nc1ccc(N2CCCCC2)cc1)c1cncc(Br)c1 [5-bromanyl-N-(4-piperidin-1-ylphenyl)pyridine-3-carboxamide]	1060
CCOc1cc(N2CCOCC2)c(OCC)cc1NS(=O)(=O)c1ccc(Cl)s1 [5-chloranyl-N-(2,5-diethoxy-4-morpholin-4-yl-phenyl)thiophene-2-sulfonamide]	1220
CCN(CCCNC(=O)c1cn(CC)c2ccc(S(=O)(=O)N(C)C)cc2c1=O)c1cccc(C)c1 [6-(dimethylsulfamoyl)-1-ethyl-N-[3-(N-ethyl-3-methyl-anilino)propyl]-4-keto-quinoline-3-carboxamide]	> 99000
COC(=O)c1c(NC(=O)CC2SCC(C(=O)OC)NC2=O)sc2c1CCCC2 (configuration not stated) [6-[2-[(3-carbomethoxy-4,5,6,7-tetrahydrobenzothiophen-2-yl)amino]-2-keto-ethyl]-5-keto-thiomorpholine-3-carboxylic acid methyl ester]	> 99000
Cc1cccn2cc(-c3ccccc3)nc12 [8-methyl-2-phenyl-imidazo[1,2-a]pyridine]	190
Cn1cccc1C(=O)OCc1csc(-c2ccccc2)n1 [(2-phenyl-1,3-thiazol-4-yl)methyl 1-methylpyrrole-2-carboxylate]	129
CCOC(=O)CSc1nc2cc(OCC)ccc2cc1C#N [(3-Cyano-7-ethoxy-quinolin-2-ylsulfanyl)-acetic acid ethyl ester]	3280
CC1=CCC(COC(=O)Nc2ccccc2)CC1 (configuration not stated) [(4-methylcyclohex-3-en-1-yl)methyl N-phenylcarbamate]	1240
CCN(CC)C(=O)Oc1ccc2c(=O)c(-c3ccccc3)coc2c1 [(4-oxidanylidene-3-phenyl-chromen-7-yl) N,N-diethylcarbamate]	826
CCOC(=O)Nc1ccc2c(c1)Nc1ccccc1S2 [(10H-Phenothiazin-2-yl)-carbamic acid ethyl ester]	> 3670
C=CCOc1ccc(C=CC(C)N=O)cc1 (configuration not stated) [(E)-4-(4-allyloxyphenyl)but-3-en-2-one oxime]	1020
CCOc1ccc(C=CC(C)N=O)cc1 (configuration not stated) [(Z)-4-(4-ethoxyphenyl)-3-buten-2-one oxime]	> 407
O=C(Nc1nnc(C23CC4CC(CC(C4)C2)C3)s1)c1ccco1 [N-[5-(1-adamantyl)-1,3,4-thiadiazol-2-yl]furan-2-carboxamide]	257
Cc1c(C(=O)OCC2CCCO2)[nH]c2c1C(=O)CC(c1ccco1)C2 (configuration not stated) [oxolan-2-ylmethyl 6-(furan-2-yl)-3-methyl-4-oxo-1,5,6,7-tetrahydroindole-2-carboxylate]	1230

Now from value to molecule:

EC50 [nM]	Structure (SMILES)
5530	CC(C)CNS(=O)(=O)c1ccc(C(=O)Nc2ccc3c(c2)OCCO3)cc1 [MLS000032888]
> 99000	COc1ccc(C(O)P(=O)(O)CCc2ccccc2)cc1 (configuration not stated) [MLS000038577]
4800	COc1ccc(C(=O)n2c(-c3ccco3)nc3ccccc32)cc1 [MLS000039368]
1300	COc1ccccc1-c1nnc(NC(C)=O)s1 [MLS000041972]
2150	CCn1c(Cn2nnc(-c3ccccc3)n2)nnc1SCC(=O)Nc1ccc(C(C)=O)cc1 [MLS000068275]
140	CCOc1ccc2nc(NC(=O)c3cnccn3)sc2c1 [MLS000070707]
4830	COc1ccc2nc(NC(=O)CSc3nnc(-c4ccoc4C)n3C)sc2c1 [MLS000073639]
5080	CCc1nnc2c3cnn(-c4ccccc4)c3ncn12 [MLS000080478]
5050	O=C(NCc1cccs1)c1noc2c1CCCC2 [MLS000087354]
> 99000	Cc1ccc2c(c1)c1c3n2CCCNC3CCC1 (configuration not stated) [MLS000105423]
> 99000	COc1ccc(CCC(=O)Nc2ccc3c(c2)OCCO3)cc1 [MLS000110197]
> 99000	CCOc1ccc2nc(N3CCC(C(=O)N4CCN(c5ccccn5)CC4)CC3)sc2c1 [MLS000119552]
4110	O=C(Nc1ccc2nc(-c3ccc(Br)o3)[nH]c2c1)c1cccs1 [SMR000046012]
> 99000	Oc1ccc(Cl)cc1C=Nc1nc2ccccc2[nH]1 [SMR000103225]
6150	Cc1nc(N=CN(C)C)sc1C(=O)Nc1ccccc1 [SMR000107046]

Same assay, conditions: inactive by the depositor's call

Structure (SMILES)	EC50 [nM]
O=c1c2ccccc2nc2ccc(NCc3ccco3)nn12 [2-(2-furanylmethylamino)-10-pyridazino[6,1-b]quinazolinone]	27300
O=C(c1ccco1)N1CCN(c2ncnc3c(-c4ccccc4)nsc23)CC1 [2-furanyl-[4-(3-phenyl-7-isothiazolo[4,5-d]pyrimidinyl)-1-piperazinyl]methanone]	21000

Continued, values first:

EC50 [nM]	Structure (SMILES)
10900	O=C(NC1CCCC1)c1cc(-c2cccs2)on1 [MLS000087238]
12700	O=C(CSc1nc[nH]n1)Nc1nnc(-c2ccccc2)s1 [SMR000091719]
